{"source": "patent US9579384B2", "about": "“Method of treating bendamustine-responsive conditions in patients requiring reduced volumes for administration” (Eagle Pharmaceuticals, Inc., priority 2012, dated 2017)", "key": {"[1]": {"assay": "Measured solubility of bendamustine HCl in the diluent/solubilizer combination at room temperature", "assay_type": "physicochemical", "settings": "aqueous with cosolvent or surfactant or cyclodextrin", "description": "The solubility of the diluent/solubilizer combination far exceeded the bendamustine concentration, thus assuring the avoidance of precipitated drug prior to or during administration. As will be appreciated by those of ordinary skill, as the concentration of solubilizers increases with respect to the total volume in small administration doses, the solubility of the bendamustine is maintained.\nBendamustine formulations containing the above ingredients are capable of delivering approximately 360 mg of the drug as the HCl salt in volumes of pharmaceutically acceptable diluent ranging from about 120 ml down to about 15 ml."}, "[2]": {"assay": "Observation of precipitation in the IV fluid during administration to patient", "assay_type": "physicochemical", "description": "In this example, a patient diagnosed with chronic lymphocytic leukemia (CLL) and having chronic kidney disease (GFR<30 ml/min/1.73 m^2) is begun on a treatment protocol with bendamustine. In particular, the patient is administered 360 mg of bendamustine as part of an approximately 114.4 ml infusion on days 1 and 2 of a 28 day cycle. The intravenous formulation is prepared by drawing up 14.4 ml of an RTU (ready to use) liquid containing bendamustine HCl 25 mg/ml, PG 103.2 mg/ml, PEG 1013.4 mg/ml, monothioglycerol 5 mg/ml and 0.08 mg/ml NaOH and mixing it into a 100 ml bag containing 0.9% NaCl. The final bendamustine concentration for the IV fluid is 3.15 mg/ml. The infusion is administered to the patient in less than 15 minutes.\nThe process of Example 1 is repeated except that the IV infusion volume is approximately 64.4 ml. The same 14.4 ml of an RTU (ready to use) liquid containing bendamustine HCl 25 mg/ml, PG 103.2 mg/ml, PEG 1013.4 mg/ml, monothioglycerol 5 mg/ml and 0.08 mg/ml NaOH is used and it is mixed into a 50 ml bag containing 0.9% NaCl. The final bendamustine concentration for the IV fluid is 5.59 mg/ml. The infusion is administered to the patient in less than 10 minutes."}}, "note": "Counter-ions that a name gives are not always drawn."}
{"smiles": "Cn1c(CCCC(=O)O)nc2cc(N(CCCl)CCCl)ccc21", "note": "[bendamustine HCl, Bendamustine HCl]", "values": [{"measurement": "solubility", "setting": "[1]; half normal saline/dextrose diluent/solubilizer combination, 50 ml half normal saline/dextrose + 1 ml of 25 mg/ml bendamustine HCl and solubilizers (PG, PEG 400)", "result": 14.2, "unit": "mg/mL"}, {"measurement": "solubility", "setting": "[1]; normal saline diluent/solubilizer combination, 50 ml normal saline + 1 ml of 25 mg/ml bendamustine HCl and solubilizers (PG, PEG 400)", "result": 10.5, "unit": "mg/mL"}, {"measurement": "precipitation of bendamustine in the IV fluid during administration", "setting": "[2]; 14.4 ml RTU liquid (25 mg/ml) in 50 ml 0.9% NaCl, final 5.59 mg/ml, infusion in less than 10 minutes", "result": "No precipitated bendamustine is observed"}, {"measurement": "precipitation of bendamustine in the IV fluid during administration", "setting": "[2]; 14.4 ml RTU liquid (25 mg/ml) in 100 ml 0.9% NaCl, final 3.15 mg/ml, infusion in less than 15 minutes", "result": "No precipitated bendamustine is observed"}]}
